Measured values reported in patent publication US20250188059A1, “NOVEL COMPOUND AND USE THEREOF FOR INHIBITING CHECKPOINT KINASE 2” (ARUM THERAPEUTICS INC, priority 2022, published 2025).
Where two headings read alike, the source gives them in different places.

Key:
[1] = Pharmacokinetics test using mice; format: in vivo; conditions: male, Balb/C, mouse, plasma; for Cmax: read-out: C0/Cmax; for Vd: iv, 1 mg/kg
Method: 6 to 8 week-old male Balb/C mice weighing 22-29 g were acclimatized for about 1 week, and then 12 mice for each group were divided into an intravenous administration group and an oral administration group and used in the experiment. The mice were fasted before administration of the compound and were allowed to drink water ad libitum. Feed was provided 2 hours after administration of the compound.
A preparation for intravenous injection (0.2 mg/mL) was prepared by dissolving 1.264 mg of the compound of Example 9 in 6.257 mL of DMSO: a mixed solution of solutol and ethanol (1:1): physiological saline (5:5:90% v/v). A preparation for oral administration (1 mg/mL) was prepared by suspending 5.916 mg of the compound of Example 9 in 5.857 mL of 0.5% methyl cellulose (0.5:99.5% v/v) containing 0.1 Tween 80.
The compound of Example 9 was administered at a dose of 1 mg/kg for intravenous administration and at a dose of 10 mg/kg for oral administration using an oral zonde.
In the case of intravenous administration, blood was collected at 5 minutes, 15 minutes, 30 minutes, 1 hour, 2 hours, 4 hours, 8 hours and 24 hours after administration of the compound. In the case of oral administration, blood was collected at 15 minutes, 30 minutes, 1 hour, 2 hours, 4 hours, 8 hours, 10 hours and 24 hours after administration of the compound. Plasma was separated from the collected blood, and the content of compounds in blood was measured by LC-MS/MS method, and PK parameters were calculated using Phoenix software ver.8.1.

[2] = tested on: human breast cancer cell line MCF-7; experiment: Cancer cell growth inhibition test (CellTiter-Glo); format: cell-based; conditions: Homo sapiens, MCF7, 72 h, MCF-7, 72 hours, graded; read-out: Celltiter glo analysis (IC50)
Method in brief: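 MCF-7 cells (about 3000/well) pre-incubated 24 hours at 37° C, then exposed 72 hours to serially diluted compound, alone or combined with cisplatin or doxorubicin. Viability read by CellTiter-Glo luminescence as % of DMSO-only wells; values are means of three wells.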

Chk2 kinase = Chk2 kinase (Homo sapiens (Human), UniProt O96017); experiment: Chk2 kinase inhibitory activity (LanthaScreen TR-FRET); format: biochemical; conditions: graded
Chain of Chk2 kinase (O96017 whole entry): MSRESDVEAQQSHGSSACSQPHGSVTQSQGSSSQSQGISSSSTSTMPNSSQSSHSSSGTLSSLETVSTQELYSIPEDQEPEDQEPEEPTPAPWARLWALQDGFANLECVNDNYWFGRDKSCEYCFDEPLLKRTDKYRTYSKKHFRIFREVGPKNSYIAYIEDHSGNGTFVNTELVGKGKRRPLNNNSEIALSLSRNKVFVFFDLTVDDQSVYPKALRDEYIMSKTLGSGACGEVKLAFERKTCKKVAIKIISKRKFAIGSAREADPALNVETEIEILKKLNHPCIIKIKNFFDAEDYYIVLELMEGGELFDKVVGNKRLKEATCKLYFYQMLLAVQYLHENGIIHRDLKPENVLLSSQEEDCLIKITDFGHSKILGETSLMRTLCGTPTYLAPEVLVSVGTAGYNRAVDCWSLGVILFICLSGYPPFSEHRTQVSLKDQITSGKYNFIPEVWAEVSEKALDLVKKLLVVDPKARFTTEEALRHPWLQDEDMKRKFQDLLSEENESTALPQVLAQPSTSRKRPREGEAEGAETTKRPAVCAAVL
Method in brief: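 Recombinant Chk1 or Chk2 was mixed with substrate and compound, and the reaction was started with ATP and run 1 h at room temperature. Phosphorylation was detected with a Tb-labelled anti-CREB pSer133 antibody for 30 min, read as the TR-FRET Em520/Em490 ratio. IC50 was fitted from duplicate-well means.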

Chk1 kinase = Chk1 kinase (Homo sapiens (Human), UniProt O14757); experiment: Chk1 kinase inhibitory activity (LanthaScreen TR-FRET); format: biochemical; conditions: graded
Chain of Chk1 kinase (O14757 whole entry): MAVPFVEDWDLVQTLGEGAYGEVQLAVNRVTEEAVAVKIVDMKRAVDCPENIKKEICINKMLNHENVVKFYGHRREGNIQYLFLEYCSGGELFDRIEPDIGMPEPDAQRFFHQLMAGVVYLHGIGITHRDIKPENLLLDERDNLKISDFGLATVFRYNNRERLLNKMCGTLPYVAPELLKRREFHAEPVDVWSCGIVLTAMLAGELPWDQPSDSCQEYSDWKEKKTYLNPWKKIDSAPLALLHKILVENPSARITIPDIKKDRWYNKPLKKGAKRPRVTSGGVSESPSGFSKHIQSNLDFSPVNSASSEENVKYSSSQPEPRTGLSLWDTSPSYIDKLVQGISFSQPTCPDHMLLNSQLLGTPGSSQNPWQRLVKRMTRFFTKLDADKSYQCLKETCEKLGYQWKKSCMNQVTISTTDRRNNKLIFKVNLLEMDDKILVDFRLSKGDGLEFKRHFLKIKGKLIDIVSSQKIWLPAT
Method: The compounds of Examples 1 to 66 were diluted at various concentrations and transferred to a 384-well plate by 5 μl, and 10 μl of a mixed solution (2×) of Chk1 kinase (Thermo, P3040) or Chk2 kinase (Thermo, PV3367) and a substrate (Thermo, PV3508) was added to wells treated with the compounds. 5 μl of an ATP solution at a 4× concentration was added to the test well and reacted at room temperature for 1 hour. 20 μl of LanthaScreen Terbium-CREB p-Ser 133 antibody (Thermo, PV3542) was added to the reaction well and incubated at room temperature for 30 minutes. Conversion data was measured by an EnVision 2014 multi label reader (PerkinElmer). The activity for each concentration was determined by the ratio (FRET ratio=FR) of the value obtained by dividing the value at 520 nm by the value at 490 nm among the emission wavelength values for each wavelength (Em520/Em490). The results obtained for each concentration of the compounds were the average values obtained in two wells, and the IC50 values of the compounds were calculated using PRIZM software for analysis of the results. IC50 in Table 7 was graded as follows.

In the case of `Nc1ncc(-c2cc(-c3cnn(CC(F)(F)F)c3)ccc2F)nc1C(=O)N[C@@H]1CNC[C@@H](F)C1` [Example 9, 3-amino-6-(2-fluoro-5-(1-(2,2,2-trifluoroethyl)-1H-pyrazol-4-yl)phenyl)-N-((3S,5S)-5-fluoropiperidin-3-yl) pyrazine-2-carboxamide], the AUC(0-inf) ([1]; IV (1 mg/kg)) is reported as 298 ng·h/mL, the AUC(0-t) ([1]; IV (1 mg/kg)) is reported as 267 ng·h/mL and the clearance ([1]; IV (1 mg/kg)) is reported as 56.2 mL/min/kg. For the same compound, the half-life ([1]; IV (1 mg/kg)) was 1.36 h, the Cmax ([1]; IV (1 mg/kg)) was 231 ng/mL and the bioavailability ([1]; PO 10 mg/kg vs IV 1 mg/kg, read-out: Oral bioavailability (% F)) was 59%. It also gave an AUC(0-inf) ([1]; PO (10 mg/kg)) of 1770 ng·h/mL, an AUC(0-t) ([1]; PO (10 mg/kg)) of 1730 ng·h/mL and a Tmax ([1]; PO (10 mg/kg)) of 0.5 h. It also gave a half-life ([1]; PO (10 mg/kg)) of 1.92 h, a Cmax ([1]; PO (10 mg/kg)) of 749 ng/mL and a Vd ([1]; IV (1 mg/kg), read-out: Vd) of 6.59 L/kg. It also gave a Vd ([1]; IV (1 mg/kg), read-out: Vss) of 5.22 L/kg, an IC50 [2] of 10 to 100 µM and an IC50 (Chk2 kinase) of 0.01 to 0.1 µM.
Compound `CC1(C)Cc2c(-c3cccc(-c4cnc(N)c(C(=O)N[C@H]5CCCNC5)n4)c3)cnn2C1` [Example 42, (S)-3-amino-6-(3-(5,5-dimethyl-5,6-dihydro-4H-pyrrolo[1,2-b]pyrazol-3-yl)phenyl)-N-(piperidin-3-yl) pyrazine-2-carboxamide] has an IC50 (Chk1 kinase) of 0.01 to 0.1 µM, an IC50 [2] of 10 to 100 µM and an IC50 (Chk2 kinase) of no more than 0.01 µM.
Compound `CC1(C)Cc2c(-c3ccc(F)c(-c4cnc(N)c(C(=O)N[C@H]5CCCNC5)n4)c3)cnn2C1` [Example 43, (S)-3-amino-6-(5-(5,5-dimethyl-5,6-dihydro-4H-pyrrolo[1,2-b]pyrazol-3-yl)-2-fluorophenyl)-N-(piperidin-3-yl)pyrazine-2-carboxamide] has an IC50 (Chk1 kinase) of 0.1 to 1 µM, an IC50 [2] of 10 to 100 µM and an IC50 (Chk2 kinase) of no more than 0.01 µM.
Work on `CC1(C)Cc2c(-c3ccc(F)c(-c4cnc(N)c(C(=O)N[C@@H]5CNC[C@@H](F)C5)n4)c3)cnn2C1` [Example 44, 3-amino-6-(5-(5,5-dimethyl-5,6-dihydro-4H-pyrrolo [1,2-b]pyrazol-3-yl)-2-fluorophenyl)-N-((3S,5S)-5-fluoropiperidin-3-yl)pyrazine-2-carboxamide] yielded an IC50 (Chk1 kinase) of no more than 0.01 µM, an IC50 [2] of no more than 10 µM and an IC50 (Chk2 kinase) of 0.01 to 0.1 µM.
Compound `CC1(C)Cc2c(-c3cccc(-c4cnc(N)c(C(=O)N[C@@H]5CNC[C@@H](F)C5)n4)c3)cnn2C1` [Example 45, 3-amino-6-(3-(5,5-dimethyl-5,6-dihydro-4H-pyrrolo[1,2-b]pyrazol-3-yl)phenyl)-N-((3S,5S)-5-fluoropiperidin-3-yl)pyrazine-2-carboxamide] has an IC50 (Chk1 kinase) of 0.1 to 1 µM, an IC50 [2] of 10 to 100 µM and an IC50 (Chk2 kinase) of no more than 0.01 µM.
With `CC1(C)Cc2c(-c3ccc(F)c(-c4cnc(N)c(C(=O)N[C@H]5CCC6(CC6)NC5)n4)c3)cnn2C1` [Example 46, (S)-3-amino-6-(5-(5,5-dimethyl-5,6-dihydro-4H-pyrrolo[1,2-b]pyrazol-3-yl)-2-fluorophenyl)-N-(4-azaspiro[2.5]octan-6-yl)pyrazine-2-carboxamide] the IC50 (Chk1 kinase) was greater than 1 µM, the IC50 [2] was 10 to 100 µM and the IC50 (Chk2 kinase) was 0.01 to 0.1 µM.
`CC1(C)Cc2c(-c3cccc(-c4cnc(N)c(C(=O)N[C@@H]5CNCC(F)(F)C5)n4)c3)cnn2C1` [Example 59] showed an IC50 (Chk1 kinase) greater than 1 µM, an IC50 [2] of no more than 10 µM and an IC50 (Chk2 kinase) of 0.01 to 0.1 µM.
With `CC1(C)Cc2c(-c3nccc(-c4cnc(N)c(C(=O)NC5CNC[C@@H](F)C5)n4)n3)cnn2C1` (stereo partly drawn) [Example 64, 3-amino-6-(2-(5,5-dimethyl-5,6-dihydro-4H-pyrrolo[1,2-b]pyrazol-3-yl)pyrimidin-4-yl)-N-((3S,5S)-5-fluoropiperidin-3-y)pyrazine-2-carboxamide] the IC50 (Chk1 kinase) was greater than 1 µM, the IC50 [2] was 10 to 100 µM and the IC50 (Chk2 kinase) was no more than 0.01 µM.
